Measurements taken from patent US8546428B2 (priority 2006, dated 2013).

Experiments:
[1] = hygroscopicity of the salt; type: physicochemical
[2] = in vivo, po

**Q.** What does the source list for `COc1nc2ccc(Br)cc2cc1[C@@H](c1ccccc1)[C@@](O)(CCN(C)C)c1cccc2ccccc12.O=C(O)/C=C/C(=O)O` [Present fumarate salt, (alpha S, beta R)-6-bromo-alpha-[2-(dimethylamino)ethyl]-2-methoxy-alpha-1-naphthalenyl-beta-phenyl-3-quinolineethanol (2E)-2-butenedioate (1:1)]?
**A.** hygroscopicity [1]: non-hygroscopic; bioavailability, fed subjects compared to fasted subjects [2]: higher bioavailability
